Data: article PMC9317966, “Structure-function analysis of the AMPK activator SC4 and identification of a potent pan AMPK activator” (Biochemical Journal, 2022)

Assays:
[1] = tested on: rodent and non-human primate models of T2DM; design: method as in PMID 28705990; details: cited from earlier work
C2C12 myoblasts = experiment: C2C12 oxygen consumption rate (Seahorse), mitochondrial function; format: cell-based, Murine; details: for basal respiration, ATP production, maximal respiration, spare respiratory capacity, non-mitochondrial oxygen consumption and coupling efficiency: 1 h
Description: Murine C2C12 myoblasts were plated at 1 × 10^4 cells/well into Agilent Seahorse XFe24 Cell Culture Microplates in DMEM (life Technologies, Australia) containing 10% (v/v) fetal calf serum, 1% L-glutamine (v/v), and 1% (v/v) antibiotic solution (100 unit/ml penicillin/streptomycin) at 37°C in an atmosphere of 5% CO2. The next day, cells were switched to Seahorse basal assay media (Agilent, cat#: 102353-100; 48.5 ml) containing Glutamax (500 µl of 100×; Gibco, cat#35050), D-glucose (Sigma–Aldrich cat#: G8769) and sodium pyruvate (100×; Gibco cat#: 11360-070) at pH 7.4. MK-8722 at varying doses (0, 1, 10 µM) was incubated with myotubes 1 h prior to experiment, and the assay performed by titrating oligomycin (2 µM), FCCP (2 µM), and rotenone (2 µM) plus antimycin A (2 µM) as indicated. A Seahorse XFe24 Flux Analyzer (Seahorse Biosciences) was used to measure Oxygen Consumption Rate (OCR) at three time points during basal respiration and after each injection. Cells were lysed in equal volume (20 µl) and OCR measurements were normalised to total protein determined by polyacrylamide electrophoresis (5 µl lysate/well) and stain-free imaging.
Lysates were assessed for phosphorylation of AMPKα-Thr172 by immunoblot. n = 3, data presented as mean T172 phosphorylation (arbitrary units) ± SEM. Statistical significance vs. respective vehicle treatment was performed using unpaired, two-tailed Student’s t-test. **** P < 0.0001 indicates significant increase in a-Thr172 phosphorylation relative to vehicle treated WT γ1AMPK. Representative immunoblots are shown. (B) C2C12 myoblast oxygen consumption rate following treatment of MK-8722 (0, 1, 10 µM) for 1 h and titration of specific respiration modulators. (C-I) Parameters of mitochondrial function. n = 6-7, data presented as mean oxygen consumption rate ± SEM. […] (J) Lysates were assessed for total protein content following the respiration assay.

human GST-AMPK α1β2γ1 = molecular target: T1, human GST-AMPK α1β2γ1 (Homo sapiens, UniProt O43741+Q13131); experiment: Radiolabel SAMS kinase assay, GST-AMPK from HEK293T/17 cells immobilised on glutathione-Sepharose; format: biochemical; details: 1 µM compound
T1 construct: triply transfected with full-length AMPK α1 or α2 (NH2-terminal GST fusion, pDEST27 vector); full-length AMPK α1 or α2 (NH2-terminal GST fusion, pDEST27 vector), β1 or β2 (COOH-terminal FLAG fusion, pcDNA3.1 vector); FLAG (C); made in house; host or cells: HEK293T/17 cells, transient triple transfection
T1 sequence (Q13131 whole entry, the tested form may be a part): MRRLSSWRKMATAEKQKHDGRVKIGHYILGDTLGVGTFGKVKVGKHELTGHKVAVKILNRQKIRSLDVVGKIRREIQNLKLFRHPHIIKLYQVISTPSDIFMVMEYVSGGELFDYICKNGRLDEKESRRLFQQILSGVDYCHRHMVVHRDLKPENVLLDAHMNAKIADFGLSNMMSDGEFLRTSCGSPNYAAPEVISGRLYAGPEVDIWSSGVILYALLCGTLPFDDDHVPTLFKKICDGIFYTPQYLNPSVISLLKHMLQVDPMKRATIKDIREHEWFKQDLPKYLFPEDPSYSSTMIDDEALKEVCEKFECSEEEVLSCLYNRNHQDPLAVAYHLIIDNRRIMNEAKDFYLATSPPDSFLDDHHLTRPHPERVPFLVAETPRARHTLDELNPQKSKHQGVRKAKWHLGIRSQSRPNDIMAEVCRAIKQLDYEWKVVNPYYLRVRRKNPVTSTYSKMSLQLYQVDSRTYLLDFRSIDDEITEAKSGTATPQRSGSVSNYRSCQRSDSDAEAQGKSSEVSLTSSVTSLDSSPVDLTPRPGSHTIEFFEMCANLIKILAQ
T1 sequence (O43741 whole entry, the tested form may be a part): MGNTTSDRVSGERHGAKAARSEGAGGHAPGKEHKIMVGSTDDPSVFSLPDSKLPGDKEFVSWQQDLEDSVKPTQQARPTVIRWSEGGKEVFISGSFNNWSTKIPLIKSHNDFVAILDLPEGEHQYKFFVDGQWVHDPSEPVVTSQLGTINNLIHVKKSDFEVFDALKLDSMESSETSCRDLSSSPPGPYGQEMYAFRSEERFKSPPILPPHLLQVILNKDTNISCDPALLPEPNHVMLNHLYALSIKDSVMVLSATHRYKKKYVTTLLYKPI
T1 sequence (P54619 whole entry partner, the tested form may be a part): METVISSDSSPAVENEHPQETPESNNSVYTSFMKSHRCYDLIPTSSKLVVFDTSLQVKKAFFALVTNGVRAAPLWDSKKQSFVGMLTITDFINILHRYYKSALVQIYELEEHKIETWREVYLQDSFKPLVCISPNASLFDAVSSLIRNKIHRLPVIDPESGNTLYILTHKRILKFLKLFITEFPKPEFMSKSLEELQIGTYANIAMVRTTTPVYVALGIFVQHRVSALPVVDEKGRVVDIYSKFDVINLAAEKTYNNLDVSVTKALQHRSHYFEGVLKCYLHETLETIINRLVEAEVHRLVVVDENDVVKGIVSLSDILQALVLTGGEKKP
Summary of the method: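 GST-AMPK complexes were expressed in HEK293T/17 cells and immobilised on glutathione-Sepharose. Phosphorylation of 100 µM SAMS peptide was run with 200 µM ATP plus [γ-³²P]-ATP and 5 mM MgCl2 in HEPES pH 7.4, 10 min at 30°C, with or without 1 µM compound. ³²P incorporation was measured on phosphocellulose by scintillation counting.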

Row | basal respiration, ATP production, maximal respiration, spare respiratory capacity, non-mitochondrial oxygen consumption and coupling efficiency (C2C12 myoblasts; 1 µM) | basal respiration, ATP production, maximal respiration, spare respiratory capacity, non-mitochondrial oxygen consumption and coupling efficiency (C2C12 myoblasts; 10 µM) | fold AMPK activation relative to vehicle (human GST-AMPK α1β2γ1) | Structure (SMILES) | cardiac hypertrophy ([1]; lean and diabetic animal models) | key disease hallmarks (systemic glucose clearance, glycaemic control) ([1]; rodent and non-human primate models of T2DM) | cell viability by total protein stain (C2C12 myoblasts; 0, 1, 10 µM, after respiration assay)
1 | not | significantly impaired | – | O[C@@H]1CO[C@H]2[C@@H]1OC[C@H]2Oc1nc2nc(-c3ccc(-c4ccccc4)cc3)c(Cl)cc2[nH]1 [MK-8722, reference compound] | reversible cardiac hypertrophy | robust improvements in key disease hallmarks | not due to loss of cell viability
2 | – | – | > 2.2 fold | CC(=O)NC1CC=C(c2ccc(-c3nc4nc(Oc5ccc(C)c(C(=O)O)c5)[nH]c4cc3Cl)cc2)CC1 (stereo not drawn) [MSG011, 5-((5-(4′-Acetamido-2′,3′,4′,5′-tetrahydro-[1,1′-biphenyl]-4-yl)-6-chloro-1H-imidazo[4,5-b]pyridin-2-yl)oxy)-2-methylbenzoic acid] | – | – | –
